From the kinase profiling compilation of Christmann-Franck et al. (2016)

Experiments:
Experiment in all cases: KINOMEscan competition binding
Conditions in all cases: compound 10.0 µM
[1] = tested on: ABL1 (human), P00519 [M351T]
[2] = target: ACVR2A (human) (UniProt P27037)
[3] = target: BMPR1B (human) (UniProt O00238)
[4] = target: BRSK1 (human) (UniProt Q8TDC3)
[5] = target: CDK19 (human) (UniProt Q9BWU1)
[6] = target: CDK9 (human) (UniProt P50750)
[7] = target: CSNK1G3 (human) (UniProt Q9Y6M4)
[8] = target: DCLK1 (human) (UniProt O15075)
[9] = target: EPHA1 (human) (UniProt P21709)
[10] = target: EPHA5 (human) (UniProt P54756)
[11] = target: EPHA6 (human) (UniProt Q9UF33)
[12] = target: EPHA8 (human) (UniProt P29322)
[13] = target: LATS1 (human) (UniProt O95835)
[14] = target: LATS2 (human) (UniProt Q9NRM7)
[15] = target: MAP2K5 (human) (UniProt Q13163)
[16] = target: MAP2K7 (human) (UniProt O14733)
[17] = target: MAP3K12 (human) (UniProt Q12852)
[18] = target: MAP3K4 (human) (UniProt Q9Y6R4)
[19] = target: MAP4K4 (human) (UniProt O95819)
[20] = target: MAPK12 (human) (UniProt P53778)
[21] = target: MAPK14 (human) (UniProt Q16539)
[22] = target: MET (human) (UniProt P08581)
[23] = target: MYLK (human) (UniProt Q15746)
[24] = target: MYLK3 (human) (UniProt Q32MK0)
[25] = target: NEK4 (human) (UniProt P51957)
[26] = target: PAK1 (human) (UniProt Q13153)
[27] = target: PAK6 (human) (UniProt Q9NQU5)
[28] = target: PLK4 (human) (UniProt O00444)
[29] = target: PRKG2 (human) (UniProt Q13237)
[30] = tested on: RET (human), P07949 [V804L]
[31] = tested on: RET (human), P07949 [V804M]
[32] = target: RIOK2 (human) (UniProt Q9BVS4)
[33] = target: RPS6KA1 KD1 (human) (UniProt Q15418)
[34] = target: RPS6KA5 KD1 (human) (UniProt O75582)
[35] = target: STK17A (human) (UniProt Q9UEE5)
[36] = target: STK25 (human) (UniProt O00506)
[37] = target: TNK2 (human) (UniProt Q07912)
[38] = target: TYRO3 (human) (UniProt Q06418)
[39] = target: ZAP70 (human) (UniProt P43403)
[40] = target: CSNK1A1 (human) (UniProt P48729)
[41] = tested on: KIT (human), P10721 [D816H]

Chain of STK17A (human) (Q9UEE5 whole entry, looked up): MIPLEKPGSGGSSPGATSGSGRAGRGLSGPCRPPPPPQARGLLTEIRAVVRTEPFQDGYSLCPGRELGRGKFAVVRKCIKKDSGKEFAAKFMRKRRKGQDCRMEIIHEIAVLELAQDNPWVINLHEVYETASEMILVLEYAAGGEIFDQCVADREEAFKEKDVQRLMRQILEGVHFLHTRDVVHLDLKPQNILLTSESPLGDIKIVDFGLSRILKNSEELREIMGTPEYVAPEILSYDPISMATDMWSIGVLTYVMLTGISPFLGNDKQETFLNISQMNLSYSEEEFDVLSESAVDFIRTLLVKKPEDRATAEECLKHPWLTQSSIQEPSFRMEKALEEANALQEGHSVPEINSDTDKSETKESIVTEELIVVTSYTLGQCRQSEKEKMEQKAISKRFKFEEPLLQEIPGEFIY
Chain of CDK19 (human) (Q9BWU1 whole entry, looked up): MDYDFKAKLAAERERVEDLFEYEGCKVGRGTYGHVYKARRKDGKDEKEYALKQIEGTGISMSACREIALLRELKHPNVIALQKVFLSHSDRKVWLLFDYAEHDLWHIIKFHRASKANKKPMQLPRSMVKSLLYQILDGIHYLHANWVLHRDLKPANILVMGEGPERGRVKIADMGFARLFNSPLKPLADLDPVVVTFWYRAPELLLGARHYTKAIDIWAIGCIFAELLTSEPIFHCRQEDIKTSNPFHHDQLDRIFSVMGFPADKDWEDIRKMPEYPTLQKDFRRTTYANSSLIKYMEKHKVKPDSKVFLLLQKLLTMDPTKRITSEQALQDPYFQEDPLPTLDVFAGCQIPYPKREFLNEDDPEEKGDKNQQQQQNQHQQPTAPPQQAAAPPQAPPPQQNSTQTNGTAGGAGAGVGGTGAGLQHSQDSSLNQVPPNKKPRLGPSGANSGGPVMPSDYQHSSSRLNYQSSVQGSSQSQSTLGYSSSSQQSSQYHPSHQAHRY
Chain of MAP2K7 (human) (O14733 whole entry, looked up): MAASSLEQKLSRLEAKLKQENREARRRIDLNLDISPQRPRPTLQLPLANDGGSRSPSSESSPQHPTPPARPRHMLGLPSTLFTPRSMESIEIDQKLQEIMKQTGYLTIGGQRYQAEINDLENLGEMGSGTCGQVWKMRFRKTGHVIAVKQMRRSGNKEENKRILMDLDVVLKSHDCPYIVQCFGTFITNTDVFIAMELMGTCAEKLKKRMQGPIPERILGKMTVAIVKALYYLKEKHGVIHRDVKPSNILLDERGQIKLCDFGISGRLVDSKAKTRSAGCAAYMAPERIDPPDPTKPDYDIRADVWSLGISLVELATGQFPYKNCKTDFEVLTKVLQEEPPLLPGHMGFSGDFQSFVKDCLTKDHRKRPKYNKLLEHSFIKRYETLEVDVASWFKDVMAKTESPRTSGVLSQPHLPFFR
Chain of RIOK2 (human) (Q9BVS4 whole entry, looked up): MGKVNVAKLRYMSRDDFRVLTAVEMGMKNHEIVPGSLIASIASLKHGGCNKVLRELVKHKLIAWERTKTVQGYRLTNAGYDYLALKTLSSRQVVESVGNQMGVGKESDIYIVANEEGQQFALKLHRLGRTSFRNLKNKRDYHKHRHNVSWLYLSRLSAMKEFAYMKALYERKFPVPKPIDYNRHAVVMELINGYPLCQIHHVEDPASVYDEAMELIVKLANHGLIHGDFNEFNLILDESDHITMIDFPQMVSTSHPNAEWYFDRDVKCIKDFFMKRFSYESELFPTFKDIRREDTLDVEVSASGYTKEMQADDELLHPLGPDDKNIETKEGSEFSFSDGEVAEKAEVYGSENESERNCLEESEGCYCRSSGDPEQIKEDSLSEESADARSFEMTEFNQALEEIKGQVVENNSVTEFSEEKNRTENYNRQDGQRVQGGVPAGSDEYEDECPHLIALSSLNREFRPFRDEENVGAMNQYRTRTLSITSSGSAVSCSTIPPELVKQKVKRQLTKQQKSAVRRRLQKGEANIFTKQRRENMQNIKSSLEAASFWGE
Chain of MAPK14 (human) (Q16539 whole entry, looked up): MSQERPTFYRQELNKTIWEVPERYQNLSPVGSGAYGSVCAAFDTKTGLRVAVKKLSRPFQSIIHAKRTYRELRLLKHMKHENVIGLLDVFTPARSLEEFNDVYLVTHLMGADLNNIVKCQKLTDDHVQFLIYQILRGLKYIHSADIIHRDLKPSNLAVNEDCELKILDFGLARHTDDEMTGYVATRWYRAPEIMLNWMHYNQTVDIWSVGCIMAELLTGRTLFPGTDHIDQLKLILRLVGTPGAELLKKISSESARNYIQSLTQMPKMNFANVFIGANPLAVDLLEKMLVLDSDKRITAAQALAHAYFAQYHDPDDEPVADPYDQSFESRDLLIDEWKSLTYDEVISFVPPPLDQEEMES
Chain of STK25 (human) (O00506 whole entry, looked up): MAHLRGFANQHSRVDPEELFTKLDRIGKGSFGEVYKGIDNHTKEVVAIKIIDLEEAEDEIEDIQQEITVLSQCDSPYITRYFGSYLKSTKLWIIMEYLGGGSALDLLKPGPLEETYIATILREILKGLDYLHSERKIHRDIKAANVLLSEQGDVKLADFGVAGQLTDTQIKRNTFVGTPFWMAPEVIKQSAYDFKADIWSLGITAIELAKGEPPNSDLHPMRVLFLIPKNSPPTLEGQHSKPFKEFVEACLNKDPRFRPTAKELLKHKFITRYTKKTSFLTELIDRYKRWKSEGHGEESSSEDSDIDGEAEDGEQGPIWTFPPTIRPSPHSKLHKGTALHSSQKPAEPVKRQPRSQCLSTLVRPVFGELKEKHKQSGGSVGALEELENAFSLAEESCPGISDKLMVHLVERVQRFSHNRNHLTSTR
Chain of DCLK1 (human) (O15075 whole entry, looked up): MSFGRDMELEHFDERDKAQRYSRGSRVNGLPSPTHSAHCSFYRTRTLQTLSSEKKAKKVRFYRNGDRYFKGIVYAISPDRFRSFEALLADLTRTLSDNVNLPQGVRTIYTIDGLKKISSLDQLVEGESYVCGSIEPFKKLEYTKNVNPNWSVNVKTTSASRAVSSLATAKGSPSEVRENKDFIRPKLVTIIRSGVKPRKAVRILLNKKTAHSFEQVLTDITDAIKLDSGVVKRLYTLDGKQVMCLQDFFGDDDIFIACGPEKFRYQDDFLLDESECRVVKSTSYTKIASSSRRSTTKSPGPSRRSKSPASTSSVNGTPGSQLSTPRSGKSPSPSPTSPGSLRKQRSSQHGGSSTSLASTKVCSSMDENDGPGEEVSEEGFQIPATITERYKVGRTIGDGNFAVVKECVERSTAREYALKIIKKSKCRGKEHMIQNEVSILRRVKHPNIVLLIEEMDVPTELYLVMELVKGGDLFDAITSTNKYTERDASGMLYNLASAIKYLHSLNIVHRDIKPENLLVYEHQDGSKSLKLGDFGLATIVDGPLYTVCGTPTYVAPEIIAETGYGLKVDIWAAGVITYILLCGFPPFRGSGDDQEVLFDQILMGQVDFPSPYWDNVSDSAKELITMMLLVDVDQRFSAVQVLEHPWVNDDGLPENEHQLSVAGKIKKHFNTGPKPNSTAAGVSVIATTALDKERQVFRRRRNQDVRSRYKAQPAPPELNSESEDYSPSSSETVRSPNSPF
Chain of RET (human), P07949 [V804M] (P07949 whole entry V804M, looked up): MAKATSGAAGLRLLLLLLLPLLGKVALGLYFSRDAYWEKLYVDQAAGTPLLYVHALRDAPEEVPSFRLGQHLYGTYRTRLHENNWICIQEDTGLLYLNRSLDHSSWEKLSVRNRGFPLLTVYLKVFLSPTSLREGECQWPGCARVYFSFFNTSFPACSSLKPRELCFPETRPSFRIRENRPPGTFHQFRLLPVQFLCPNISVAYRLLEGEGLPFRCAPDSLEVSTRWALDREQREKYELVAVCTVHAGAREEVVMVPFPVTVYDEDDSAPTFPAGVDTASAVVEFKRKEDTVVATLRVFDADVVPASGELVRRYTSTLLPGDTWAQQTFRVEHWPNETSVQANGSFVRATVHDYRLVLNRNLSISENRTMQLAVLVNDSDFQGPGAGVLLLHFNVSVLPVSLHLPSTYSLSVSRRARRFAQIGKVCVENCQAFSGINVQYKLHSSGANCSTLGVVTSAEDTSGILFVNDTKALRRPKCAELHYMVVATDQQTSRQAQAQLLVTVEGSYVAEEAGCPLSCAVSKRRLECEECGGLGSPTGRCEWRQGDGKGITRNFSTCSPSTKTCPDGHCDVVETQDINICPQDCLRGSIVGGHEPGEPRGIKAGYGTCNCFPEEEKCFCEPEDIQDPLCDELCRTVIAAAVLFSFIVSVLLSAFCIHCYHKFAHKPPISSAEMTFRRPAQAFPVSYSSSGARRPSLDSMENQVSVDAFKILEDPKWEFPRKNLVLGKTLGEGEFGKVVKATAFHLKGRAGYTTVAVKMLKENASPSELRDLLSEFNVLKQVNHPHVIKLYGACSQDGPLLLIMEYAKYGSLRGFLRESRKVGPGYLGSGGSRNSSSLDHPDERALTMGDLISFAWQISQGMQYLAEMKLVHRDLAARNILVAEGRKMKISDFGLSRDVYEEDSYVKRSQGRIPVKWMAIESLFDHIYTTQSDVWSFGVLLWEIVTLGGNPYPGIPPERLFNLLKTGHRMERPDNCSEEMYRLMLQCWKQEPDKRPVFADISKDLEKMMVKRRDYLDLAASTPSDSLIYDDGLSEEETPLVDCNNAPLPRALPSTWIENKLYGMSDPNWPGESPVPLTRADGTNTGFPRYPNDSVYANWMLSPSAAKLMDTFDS
Chain of CDK9 (human) (P50750 whole entry, looked up): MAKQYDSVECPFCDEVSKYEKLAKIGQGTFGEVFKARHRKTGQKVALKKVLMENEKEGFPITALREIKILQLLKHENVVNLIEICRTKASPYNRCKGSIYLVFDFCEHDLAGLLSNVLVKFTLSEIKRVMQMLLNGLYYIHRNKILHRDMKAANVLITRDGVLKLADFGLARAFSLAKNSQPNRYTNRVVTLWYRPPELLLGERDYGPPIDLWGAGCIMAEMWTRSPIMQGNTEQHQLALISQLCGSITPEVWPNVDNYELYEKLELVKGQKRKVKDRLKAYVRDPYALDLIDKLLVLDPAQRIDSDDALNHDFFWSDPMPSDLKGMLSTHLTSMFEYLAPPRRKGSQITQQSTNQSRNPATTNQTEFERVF
Chain of RET (human), P07949 [V804L] (P07949 whole entry V804L, looked up): as the sequence (P07949 whole entry V804M, looked up) above, with M804L counted along it

SMILES	kinase still bound, per cent of control [2] [%]	kinase still bound, per cent of control [3] [%]	kinase still bound, per cent of control [4] [%]	per cent of control [5] [%]	per cent of control [6] [%]	kinase still bound, per cent of control [8] [%]	kinase still bound, per cent of control [9] [%]	kinase still bound, per cent of control [10] [%]	kinase still bound, per cent of control [11] [%]	kinase still bound, per cent of control [12] [%]	kinase still bound, per cent of control [13] [%]	kinase still bound, per cent of control [14] [%]	kinase still bound, per cent of control [15] [%]	kinase still bound, per cent of control [16] [%]	per cent of control [17] [%]	kinase still bound, per cent of control [18] [%]	kinase still bound, per cent of control [19] [%]	kinase still bound, per cent of control [20] [%]	kinase still bound, per cent of control [21] [%]	per cent of control [23] [%]	also measured
CCC(=O)N1CCN(c2ccc(-n3c(=O)ccc4cnc5ccc(-c6cnc7ccccc7c6)cc5c43)cc2C(F)(F)F)CC1	47	100	78	1.2	94	100	62	100	75	71	100	100	100	100	100	47	5.2	71	90	87	kinase still bound, per cent of control [1]: 100%; kinase still bound, per cent of control [7]: 100%; kinase still bound, per cent of control [22]: 84%; kinase still bound, per cent of control [24]: 94%; kinase still bound, per cent of control [25]: 86%; kinase still bound, per cent of control [26]: 73%; kinase still bound, per cent of control [27]: 77%; kinase still bound, per cent of control [28]: 100%; kinase still bound, per cent of control [29]: 78%; kinase still bound, per cent of control [30]: 66%; kinase still bound, per cent of control [31]: 69%; kinase still bound, per cent of control [32]: 24%; kinase still bound, per cent of control [33]: 68%; kinase still bound, per cent of control [34]: 100%; kinase still bound, per cent of control [35]: 93%; kinase still bound, per cent of control [36]: 84%; kinase still bound, per cent of control [37]: 51%; kinase still bound, per cent of control [38]: 31%; kinase still bound, per cent of control [39]: 100%
COC(=O)Nc1ccc(-c2nc(N3CCOCC3)c3cnn(C4CCN(C(=O)OC)CC4)c3n2)cc1	100	78	95	98	100	93	100	100	90	97	100	86	100	100	97	100	88	0	80	81	kinase still bound, per cent of control [1]: 100%; kinase still bound, per cent of control [40]: 100%; kinase still bound, per cent of control [7]: 100%; kinase still bound, per cent of control [41]: 75%; kinase still bound, per cent of control [24]: 100%; kinase still bound, per cent of control [25]: 90%; kinase still bound, per cent of control [26]: 95%; kinase still bound, per cent of control [27]: 100%; kinase still bound, per cent of control [28]: 100%; kinase still bound, per cent of control [29]: 86%; kinase still bound, per cent of control [30]: 84%; kinase still bound, per cent of control [31]: 100%; kinase still bound, per cent of control [32]: 79%; kinase still bound, per cent of control [33]: 100%; kinase still bound, per cent of control [34]: 100%; kinase still bound, per cent of control [35]: 91%; kinase still bound, per cent of control [36]: 78%; kinase still bound, per cent of control [37]: 100%; kinase still bound, per cent of control [38]: 100%; kinase still bound, per cent of control [39]: 98%
CC(C)n1nc(-c2cc3cc(O)ccc3[nH]2)c2c(N)ncnc21	0.5	0.1	1.6	24	96	70	2.7	55	5.2	1.2	55	41	0.35	75	84	85	38	59	95	0.9	kinase still bound, per cent of control [40]: 3.6%; kinase still bound, per cent of control [41]: 16%; kinase still bound, per cent of control [22]: 73%; kinase still bound, per cent of control [25]: 90%; kinase still bound, per cent of control [26]: 52%; kinase still bound, per cent of control [27]: 23%; kinase still bound, per cent of control [28]: 2.6%; kinase still bound, per cent of control [30]: 12%; kinase still bound, per cent of control [31]: 12%; kinase still bound, per cent of control [32]: 38%; kinase still bound, per cent of control [33]: 32%; kinase still bound, per cent of control [34]: 100%; kinase still bound, per cent of control [35]: 81%; kinase still bound, per cent of control [36]: 53%; kinase still bound, per cent of control [37]: 48%; kinase still bound, per cent of control [38]: 77%; kinase still bound, per cent of control [39]: 99%
